From ChEMBL document CHEMBL6071164, “9,10-Bis[(4-(2-hydroxyethyl)piperazine-1-yl)prop2-yne-1-yl]anthracene: G-Quadruplex Selectivity and Anticancer Activity” (ACS Med Chem Lett, 2024)
Active and inactive are the calls of the source. No cut-off for these calls is given here.

Columns and labels:
[1] = tested on: Quadruplex DNA; test: Binding affinity to wildtype Tel26 G4 DNA (5'-TTAGGGTTAGGGTTAGGGTTAGGGTT-3') (unknown origin) at 10:1 compound:DNA ratio incubated for 30 mins by ESI-MS analysis; type: nucleic-acid assay
[2] = tested on: NCI-H1650; test: Cytotoxicity against human NCI-H1650 cells assessed as reduction in cell viability incubated for 24 hrs by MTT assay; type: functional, cell-based; conditions: NCI-H1650, 24 h
[3] = tested on: Quadruplex DNA; test: Binding affinity to Tel23 G4 DNA (unknown origin) in PBS at pH 7.1 at 1.5 mM by wLOGSY analysis; type: nucleic-acid assay
[4] = tested on: A549; test: Cytotoxicity against human A549 cells assessed as reduction in cell viability incubated for 24 hrs by MTT assay; type: functional, cell-based; conditions: A549, 24 h
[5] = tested on: NCI-H460; test: Cytotoxicity against human NCI-H460 cells assessed as reduction in cell viability incubated for 24 hrs by MTT assay; type: functional, cell-based; conditions: NCI-H460, 24 h
[6] = tested on: PC-9; test: Cytotoxicity against human PC-9 cells assessed as reduction in cell viability incubated for 24 hrs by MTT assay; type: functional, cell-based; conditions: PC-9, 24 h
[7] = tested on: NCI-H358; test: Cytotoxicity against human NCI-H358 cells assessed as reduction in cell viability incubated for 24 hrs by MTT assay; type: functional, cell-based; conditions: NCI-H358, 24 h
[8] = tested on: NCI-H1975; test: Cytotoxicity against human NCI-H1975 cells assessed as reduction in cell viability incubated for 24 hrs by MTT assay; type: functional, cell-based; conditions: NCI-H1975, 24 h
[9] = Cytotoxicity against human BEAS-2B cells assessed as reduction in cell viability incubated for 24 hrs by MTT assay; type: toxicity, cell-based

- Activity [1]: Active
- Activity [3]: Active
Compound: OCCN1CCN(CC#Cc2c3ccccc3c(C#CCN3CCN(CCO)CC3)c3ccccc23)CC1
- IC50 [2]: > 10 µM
- IC50 [4]: 5.2 µM
- IC50 [5]: 1910 nM
- IC50 [6]: 2500 nM
- IC50 [7]: 6.21 µM
- IC50 [8]: 3.22 µM
- IC50 at 24 h [9]: 1070 nM
